Holding throughout (test): radioligand binding assay (NIMH PDSP), secondary screen
The target of experiment [1] is T1, dopamine transporter (DAT) (Homo sapiens, UniProt Q01959).
T1 construct: gene SLC6A3

Experiment [2] deals with T2, kappa opioid receptor (KOR) (Homo sapiens, UniProt P41145).
T2 construct: gene OPRK1

Experiment [3] deals with T3, dopamine D3 receptor (D3R) (Homo sapiens, UniProt P35462).
T3 construct: gene DRD3
T3 sequence (P35462 whole entry): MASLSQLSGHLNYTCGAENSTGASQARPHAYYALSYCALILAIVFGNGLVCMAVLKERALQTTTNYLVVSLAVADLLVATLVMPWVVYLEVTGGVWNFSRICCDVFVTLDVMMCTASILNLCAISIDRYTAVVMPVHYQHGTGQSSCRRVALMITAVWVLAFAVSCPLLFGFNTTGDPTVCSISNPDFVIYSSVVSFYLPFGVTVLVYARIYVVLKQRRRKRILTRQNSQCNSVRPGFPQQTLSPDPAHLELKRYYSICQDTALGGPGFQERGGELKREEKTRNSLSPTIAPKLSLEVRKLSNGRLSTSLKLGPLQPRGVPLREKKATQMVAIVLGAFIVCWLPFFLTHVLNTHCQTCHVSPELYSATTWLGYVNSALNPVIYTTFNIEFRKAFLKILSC

T2 sequence (P41145 whole entry): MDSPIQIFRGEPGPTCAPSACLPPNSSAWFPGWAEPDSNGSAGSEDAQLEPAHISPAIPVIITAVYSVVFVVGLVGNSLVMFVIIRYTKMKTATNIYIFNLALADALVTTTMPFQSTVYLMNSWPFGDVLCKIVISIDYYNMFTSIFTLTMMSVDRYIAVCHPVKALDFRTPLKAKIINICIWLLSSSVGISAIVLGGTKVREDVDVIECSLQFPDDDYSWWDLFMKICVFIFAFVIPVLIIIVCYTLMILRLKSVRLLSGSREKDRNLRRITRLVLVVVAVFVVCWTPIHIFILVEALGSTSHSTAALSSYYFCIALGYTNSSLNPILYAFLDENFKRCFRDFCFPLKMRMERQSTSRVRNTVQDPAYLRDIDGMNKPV
T1 sequence (Q01959 whole entry): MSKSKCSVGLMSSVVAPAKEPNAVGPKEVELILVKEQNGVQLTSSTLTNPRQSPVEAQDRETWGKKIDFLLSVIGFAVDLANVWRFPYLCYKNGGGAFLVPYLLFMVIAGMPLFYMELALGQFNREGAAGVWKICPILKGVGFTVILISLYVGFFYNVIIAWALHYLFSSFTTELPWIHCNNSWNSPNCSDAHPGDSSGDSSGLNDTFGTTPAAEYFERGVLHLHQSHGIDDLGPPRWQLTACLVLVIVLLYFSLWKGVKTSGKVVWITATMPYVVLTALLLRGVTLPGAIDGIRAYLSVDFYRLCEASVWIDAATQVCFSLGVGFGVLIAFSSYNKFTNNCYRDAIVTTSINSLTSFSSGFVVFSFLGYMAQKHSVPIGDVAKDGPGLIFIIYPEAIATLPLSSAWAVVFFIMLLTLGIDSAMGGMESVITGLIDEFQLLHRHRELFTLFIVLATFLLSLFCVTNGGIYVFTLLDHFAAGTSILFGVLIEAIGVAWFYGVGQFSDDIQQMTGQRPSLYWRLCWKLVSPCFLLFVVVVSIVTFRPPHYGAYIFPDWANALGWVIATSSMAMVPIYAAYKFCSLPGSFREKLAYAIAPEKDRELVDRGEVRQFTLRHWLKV

For `CO/C(=C/C(=O)N(C)C(Cc1ccccc1)c1nccs1)CC(C)C(Cl)(Cl)Cl` (stereo not drawn) [compound 1, barbamide], the Ki in experiment [1] amounted to 3100 nM; in experiment [2], 79.1 nM; in experiment [3], 446 nM.

One may read the Ki as a dissociation constant, usually derived from enzyme kinetics or from competition with a known ligand. Low readings indicate a stronger hold on the target, high ones a looser hold on the target.

For the origin of these results see PMC9966578, “Barbamide Displays Affinity for Membrane-Bound Receptors and Impacts Store-Operated Calcium Entry in Mouse Sensory Neurons” (Marine Drugs, 2023).
